One test has as its target CK1δ (Homo sapiens (Human), UniProt P48730). As to the kind of experiment: CK1δ kinase assay (Caliper LABCHIP electrophoretic separation of fluoresceinated peptide substrate and product). In kind it is biochemical. Particulars: 200 pM CK1δ, 50 μM ATP, 1.5 μM peptide substrate, 22 hours at room temperature; read-out: CK1δ (IC50). The method, then: (§1) CK1ε and CK1δ Kinase Assays
(§2) The kinase assay was performed in V-bottom 384-well plates. […] The reaction was incubated at room temperature for 22 hours and terminated by adding 45 μl of 35 mM EDTA to each sample. The reaction mixture was analyzed on the Caliper LABCHIP®3000 (Caliper, Hopkinton, Mass.) by electrophoretic separation of the unphosphorylated substrate and phosphorylated product. […] Compounds were dissolved at 10 mM in dimethylsulfoxide (DMSO) and evaluated at eleven concentrations. IC50 values were derived by non-linear regression analysis.

In another test the target is CK1ε (Homo sapiens (Human), UniProt P49674). The experiment in a line: CK1ε kinase assay (Caliper LABCHIP electrophoretic separation of fluoresceinated peptide substrate and product). Type of test: biochemical. Particulars: 200 pM CK1ε, 50 μM ATP, 1.5 μM peptide substrate, 22 hours at room temperature; read-out: CK1ε (IC50). The method, then:
as §1, §2

Chain of CK1ε (P49674 whole entry): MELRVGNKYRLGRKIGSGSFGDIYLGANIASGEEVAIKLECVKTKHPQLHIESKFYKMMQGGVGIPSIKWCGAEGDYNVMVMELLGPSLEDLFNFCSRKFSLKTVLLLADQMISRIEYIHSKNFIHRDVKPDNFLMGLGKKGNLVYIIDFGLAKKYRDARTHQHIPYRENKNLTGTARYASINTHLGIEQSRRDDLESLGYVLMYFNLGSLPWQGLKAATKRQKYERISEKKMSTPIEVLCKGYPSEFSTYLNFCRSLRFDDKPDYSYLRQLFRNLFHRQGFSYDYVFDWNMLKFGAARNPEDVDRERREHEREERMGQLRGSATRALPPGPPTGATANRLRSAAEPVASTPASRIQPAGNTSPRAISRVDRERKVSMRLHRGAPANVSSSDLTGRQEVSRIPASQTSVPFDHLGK
Chain of CK1δ (P48730 whole entry): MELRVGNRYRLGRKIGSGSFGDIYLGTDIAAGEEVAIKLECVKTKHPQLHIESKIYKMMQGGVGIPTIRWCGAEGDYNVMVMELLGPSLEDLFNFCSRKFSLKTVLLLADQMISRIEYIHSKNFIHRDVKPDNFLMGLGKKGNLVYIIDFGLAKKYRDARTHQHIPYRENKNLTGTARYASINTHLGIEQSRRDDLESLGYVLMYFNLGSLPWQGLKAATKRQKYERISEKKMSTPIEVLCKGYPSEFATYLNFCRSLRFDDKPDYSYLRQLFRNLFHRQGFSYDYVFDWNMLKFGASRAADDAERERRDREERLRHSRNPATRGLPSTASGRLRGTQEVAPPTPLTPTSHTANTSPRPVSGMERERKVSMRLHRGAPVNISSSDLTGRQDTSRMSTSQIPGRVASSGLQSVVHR

As usually defined, the IC50 is the concentration needed to halve the response being measured. Turning to `N#Cc1ccc(NC(=O)N2Cc3c(C(N)=O)c(-c4ccc(F)c(Cl)c4)nn3CC2C2CC2)cc1` (single isomer, unassigned) [Compound 342], the IC50 on CK1δ and at CK1ε was 0.01 to 10 nM throughout.
As to `N#Cc1ccc(NC(=O)N2Cc3c(C(N)=O)c(-c4ccc(F)c(Cl)c4)nn3C(C(=O)NC3CCOCC3)C2)cc1` (single isomer, unassigned) [Compound A28, 2-(3-Chloro-4-fluorophenyl)-N^5-(4-cyanophenyl)-N^7-(tetrahydro-2H-pyran-4-yl)-6,7-dihydropyrazolo[1,5-a]pyrazine-3,5,7(4H)-tricarboxamide], the IC50 at CK1δ and at CK1ε was 10 to 100 nM in each case.
In the case of `N#Cc1ccc(NC(=O)N2Cc3c(C(N)=O)c(-c4ccc(F)c(Cl)c4)nn3C(C(=O)NC3CCOCC3)C2)cc1` (single isomer, unassigned) [Compound A29, 2-(3-Chloro-4-fluorophenyl)-N^5-(4-cyanophenyl)-N^7-(tetrahydro-2H-pyran-4-yl)-6,7-dihydropyrazolo[1,5-a]pyrazine-3,5,7(4H)-tricarboxamide], the IC50 at CK1δ and at CK1ε was 10 to 100 nM in each case.
For `CC(C)(O)[C@@H]1CN(C(=O)Nc2ccc(C#N)cc2)Cc2c(C(N)=O)c(-c3ccc(Cl)c(Cl)c3)nn21` (single isomer, unassigned) [Compound A34, N^5-(4-Cyanophenyl)-2-(3,4-dichlorophenyl)-7-(2-hydroxypropan-2-yl)-6,7-dihydropyrazolo[1,5-a]pyrazine-3,5(4H)-dicarboxamide], the IC50 on CK1δ and on CK1ε was 0.01 to 10 nM each time.
As for `CC(C)(O)[C@H]1CN(C(=O)Nc2ccc(C#N)cc2)Cc2c(C(N)=O)c(-c3ccc(Cl)c(Cl)c3)nn21` (single isomer, unassigned) [Compound A35, N^5-(4-Cyanophenyl)-2-(3,4-dichlorophenyl)-7-(2-hydroxypropan-2-yl)-6,7-dihydropyrazolo[1,5-a]pyrazine-3,5(4H)-dicarboxamide], the IC50 on CK1δ and on CK1ε was 0.01 to 10 nM each time.
As for `C[C@H]1CN(C(=O)Nc2ccc(C#N)cc2)Cc2c(C(N)=O)c(-c3cccc(F)c3)nn21` (single isomer, unassigned) [Compound A78, N^5-(4-Cyanophenyl)-2-(3-fluorophenyl)-7-methyl-6,7-dihydropyrazolo[1,5-a]pyrazine-3,5(4H)-dicarboxamide], the IC50 at CK1δ and on CK1ε was 0.01 to 10 nM each time.
Regarding `CC1CN(C(=O)Nc2ccc(C#N)cc2)Cc2c(C(N)=O)c(-c3cccc(F)c3)nn21` (single isomer, unassigned) [Compound A79, N^5-(4-Cyanophenyl)-2-(3-fluorophenyl)-7-methyl-6,7-dihydropyrazolo[1,5-a]pyrazine-3,5(4H)-dicarboxamide], the IC50 at CK1δ and at CK1ε was 100 to 2000 nM throughout.
With `NC(=O)c1c(-c2cccc(F)c2)nn2c1CN(C(=O)NC1C[C@H]1c1ccccc1)CC2` (stereo in doubt) [Compound 44, 2-(3-Fluorophenyl)-N^5-((1R,2S)-2-phenylcyclopropyl)-6,7-dihydropyrazolo[1,5-a]pyrazine-3,5(4H)-dicarboxamide], the figures for the IC50 at CK1δ and at CK1ε were 0.01 to 10 nM and 10 to 100 nM, respectively.
On to `NC(=O)c1c(-c2cccc(F)c2)nn2c1CN(C(=O)NC1CCCC1)CC2` [Compound 9, N^5-Cyclopentyl-2-(3-fluorophenyl)-6,7-dihydropyrazolo[1,5-a]pyrazine-3,5(4H)-dicarboxamide], for which the IC50 on CK1δ and on CK1ε was 0.01 to 10 nM each time.
As for `NC(=O)c1c(-c2cccc(F)c2)nn2c1CN(C(=O)Nc1ccc(Cl)cc1)CC2` [Compound 10, N^5-(4-Chlorophenyl)-2-(3-fluorophenyl)-6,7-dihydropyrazolo[1,5-a]pyrazine-3,5(4H)-dicarboxamide], the half-maximal inhibitory concentration (IC50) at CK1δ and on CK1ε was 0.01 to 10 nM each time.
Turning to `NC(=O)c1c(-c2cccc(F)c2)nn2c1CN(C(=O)Nc1ccc(F)cc1)CC2` [Compound 16, 2-(3-Fluorophenyl)-N^5-(4-fluorophenyl)-6,7-dihydropyrazolo[1,5-a]pyrazine-3,5(4H)-dicarboxamide], the IC50 at CK1δ and at CK1ε was 0.01 to 10 nM in each case.
Take `NC(=O)c1c(-c2cccc(F)c2)nn2c1CN(C(=O)Nc1ccc(C(F)(F)F)cc1)CC2` [Compound 21, 2-(3-Fluorophenyl)-N^5-(4-(trifluoromethyl)phenyl)-6,7-dihydropyrazolo[1,5-a]pyrazine-3,5(4H)-dicarboxamide]: the IC50 on CK1δ and on CK1ε was 0.01 to 10 nM throughout.
Take `NC(=O)c1c(-c2cccc(F)c2)nn2c1CN(C(=O)NC13CC4CC(CC(C4)C1)C3)CC2` [Compound 22, N^5-(Adamantan-1-yl)-2-(3-fluorophenyl)-6,7-dihydropyrazolo[1,5-a]pyrazine-3,5(4H)-dicarboxamide]: the IC50 on CK1δ and at CK1ε was 0.01 to 10 nM throughout.
With `NC(=O)c1c(-c2cccc(F)c2)nn2c1CN(C(=O)Nc1cc(F)cc(F)c1)CC2` [Compound 31, N^5-(3,5-Difluorophenyl)-2-(3-fluorophenyl)-6,7-dihydropyrazolo[1,5-a]pyrazine-3,5(4H)-dicarboxamide], the IC50 on CK1δ and at CK1ε was 0.01 to 10 nM each time.
Turning to `N#Cc1ccc(NC(=O)N2CCn3nc(-c4cccc(F)c4)c(C(N)=O)c3C2)cc1C(F)(F)F` [Compound 38, N^5-(4-Cyano-3-(trifluoromethyl)phenyl)-2-(3-fluorophenyl)-6,7-dihydropyrazolo[1,5-a]pyrazine-3,5(4H)-dicarboxamide], the IC50 on CK1δ and at CK1ε was 0.01 to 10 nM in each case.
Consider `NC(=O)c1c(-c2cccc(F)c2)nn2c1CN(C(=O)NCc1ccc(Cl)cc1Cl)CC2` [Compound 45, N^5-(2,4-Dichlorobenzyl)-2-(3-fluorophenyl)-6,7-dihydropyrazolo[1,5-a]pyrazine-3,5(4H)-dicarboxamide], for which the IC50 at CK1δ and on CK1ε was 0.01 to 10 nM each time.
In the case of `NC(=O)c1c(-c2cccc(F)c2)nn2c1CN(C(=O)Nc1ccc(Cl)c(Cl)c1)CC2` [Compound 49, N^5-(3,4-Dichlorophenyl)-2-(3-fluorophenyl)-6,7-dihydropyrazolo[1,5-a]pyrazine-3,5(4H)-dicarboxamide], the IC50 at CK1δ and at CK1ε was 0.01 to 10 nM each time.
On to `NC(=O)c1c(-c2cccc(F)c2)nn2c1CN(C(=O)Nc1cccc(C(F)(F)F)c1)CC2` [Compound 50, 2-(3-Fluorophenyl)-N^5-(3-(trifluoromethyl)phenyl)-6,7-dihydropyrazolo[1,5-a]pyrazine-3,5(4H)-dicarboxamide], for which the IC50 at CK1δ and at CK1ε was 0.01 to 10 nM each time.
For the compound `COc1ccc(NC(=O)N2CCn3nc(-c4cccc(F)c4)c(C(N)=O)c3C2)cc1` [Compound 51, 2-(3-Fluorophenyl)-N^5-(4-methoxyphenyl)-6,7-dihydropyrazolo[1,5-a]pyrazine-3,5(4H)-dicarboxamide], the IC50 at CK1δ and on CK1ε was 0.01 to 10 nM in each case.
As for `NC(=O)c1c(-c2cccc(F)c2)nn2c1CN(C(=O)Nc1cc(C(F)(F)F)cc(C(F)(F)F)c1)CC2` [Compound 53, N^5-(3,5-Bis(trifluoromethyl)phenyl)-2-(3-fluorophenyl)-6,7-dihydropyrazolo[1,5-a]pyrazine-3,5(4H)-dicarboxamide], the IC50 on CK1δ and on CK1ε was 0.01 to 10 nM throughout.
As for `COc1cc(NC(=O)N2CCn3nc(-c4cccc(F)c4)c(C(N)=O)c3C2)cc(OC)c1` [Compound 56, N^5-(3,5-Dimethoxyphenyl)-2-(3-fluorophenyl)-6,7-dihydropyrazolo[1,5-a]pyrazine-3,5(4H)-dicarboxamide], the IC50 on CK1δ and at CK1ε was 0.01 to 10 nM each time.
On to `NC(=O)c1c(-c2cccc(F)c2)nn2c1CN(C(=O)Nc1ccc(Oc3ccccc3)cc1)CC2` [Compound 58, 2-(3-Fluorophenyl)-N^5-(4-phenoxyphenyl)-6,7-dihydropyrazolo[1,5-a]pyrazine-3,5(4H)-dicarboxamide], for which the IC50 on CK1δ and at CK1ε was 0.01 to 10 nM each time.
Consider `NC(=O)c1c(-c2cccc(F)c2)nn2c1CN(C(=O)Nc1ccc3ccccc3c1)CC2` [Compound 59, 2-(3-Fluorophenyl)-N^5-(naphthalen-2-yl)-6,7-dihydropyrazolo[1,5-a]pyrazine-3,5(4H)-dicarboxamide], for which the IC50 at CK1δ and on CK1ε was 0.01 to 10 nM each time.
For `NC(=O)c1c(-c2cccc(F)c2)nn2c1CN(C(=O)Nc1ccc(F)c(Cl)c1)CC2` [Compound 60, N^5-(3-Chloro-4-fluorophenyl)-2-(3-fluorophenyl)-6,7-dihydropyrazolo[1,5-a]pyrazine-3,5(4H)-dicarboxamide], the IC50 at CK1δ and at CK1ε was 0.01 to 10 nM in each case.
Regarding `NC(=O)c1c(-c2cccc(F)c2)nn2c1CN(C(=O)Nc1ccc(-c3ccccc3)cc1)CC2` [Compound 62, N^5-([1,1′-Biphenyl]-4-yl)-2-(3-fluorophenyl)-6,7-dihydropyrazolo[1,5-a]pyrazine-3,5(4H)-dicarboxamide], the IC50 on CK1δ and on CK1ε was 0.01 to 10 nM in each case.
Take `CC(C)(C)c1ccc(NC(=O)N2CCn3nc(-c4cccc(F)c4)c(C(N)=O)c3C2)cc1` [Compound 63, N^5-(4-(tert-Butyl)phenyl)-2-(3-fluorophenyl)-6,7-dihydropyrazolo[1,5-a]pyrazine-3,5(4H)-dicarboxamide]: the IC50 at CK1δ and on CK1ε was 0.01 to 10 nM throughout.
As to `COc1ccc(NC(=O)N2CCn3nc(-c4cccc(F)c4)c(C(N)=O)c3C2)cc1Cl` [Compound 67, N^5-(3-Chloro-4-methoxyphenyl)-2-(3-fluorophenyl)-6,7-dihydropyrazolo[1,5-a]pyrazine-3,5(4H)-dicarboxamide], the IC50 on CK1δ and on CK1ε was 0.01 to 10 nM throughout.

The values are drawn from patent US9598423B2 (BRISTOL-MYERS SQUIBB COMPANY, priority 2013, dated 2017).
